In PubChem BioAssay (NCI):
Where “and” joins values, the source holds several entries; their conditions need not be identical. Equal entries are not always repeated.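 Five compound concentrations were applied to cells in 96-well plates for 48 hours; endpoints were derived by simple linear interpolation of the resulting dose-response curve. At the GI50, growth is halved. TGI marks complete inhibition of growth.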

How the values were obtained:
Assay in all cases: NCI tumour cell line growth inhibition, 48 h
[1] = tested on: NCI-H23 lung
[2] = tested on: SNB-19 CNS
[3] = tested on: A498 renal
[4] = tested on: CAKI-1 renal
[5] = tested on: DMS 273 small cell lung
[6] = tested on: M19-MEL melanoma
[7] = tested on: OVCAR-5 ovarian
[8] = tested on: HL-60(TB) leukemia
[9] = tested on: BT-549 breast
[10] = tested on: MDA-MB-435

| SMILES | TGI [1] | TGI [2] | TGI [3] | TGI [4] | TGI [5] [µM] | TGI [6] [µM] | TGI [7] | TGI [8] [µM] | GI50 [5] [µM] | TGI [9] | TGI [10] | GI50 [1] | GI50 [2] | GI50 [3] | GI50 [4] | GI50 [7] | GI50 [9] [µM] | GI50 [10] [µM] | GI50 [8] [µM] |
| --- | --- | --- | --- | --- | --- | --- | --- | --- | --- | --- | --- | --- | --- | --- | --- | --- | --- | --- | --- |
| c1ccc(C2C3=C(Nc4ncnn42)c2ccccc2C3)cc1 (stereo not drawn) | 65.1 µM | > 100 µM | > 100 µM | > 100 µM | > 100 | > 100 | > 100 µM | > 100 |  |  |  |  |  |  |  |  |  |  |  |
| COc1ccc(C2Oc3c(cc(O)c(OC)c3C)[C@@H]2C)cc1OC (stereo partly drawn) | > 100 µM | > 100 µM | > 100 µM | > 100 µM | > 100 | > 100 | > 100 µM | > 100 |  |  |  |  |  |  |  |  |  |  |  |
| N.N.N.O=[N+]([O-])[O-].O=[N+]([O-])[O-].O=[N+]([O-])[O-].O=[N+]([O-])[O-].[Co+3] | > 100 µM | > 100 µM | > 100 µM |  | > 100 |  | > 100 µM | > 100 | > 100 |  |  |  |  |  |  |  |  |  |  |
| Cn1cc2ccccc2c1-c1nc(N)nc(F)n1 | > 100 µM | > 100 µM | 53.5 µM | > 100 µM | > 100 | > 100 | > 100 µM | > 100 |  |  |  |  |  |  |  |  |  |  |  |
| O=C1C(Cl)=C(N2CCN(C3=C(Cl)C(=O)c4ccccc4C3=O)CC2)C(=O)c2ccccc21 | 3.11 µM | 28.7 µM | 13.7 µM | 3.48 µM | 5.44 | 2.91 | 12.7 µM | 1.26 |  | 3.12 µM | 3.27 µM |  |  |  |  |  |  |  |  |
| Cc1c(F)c(N)c2c(=O)cc(-c3ccc(NC(=O)CN(C)C)c(F)c3)oc2c1F | > 100 µM | > 100 µM | 5.77 µM | > 66.1 µM |  |  | > 100 µM | 46.4 |  | > 100 µM | > 100 µM |  |  |  |  |  |  |  |  |
| Brc1ccc(CCNCCN2CCCCC2)cc1 | 37 µM | 34 µM | 32 µM | 29.2 µM |  |  | 36.2 µM | > 100 |  | 29.4 µM | 18.2 µM |  |  |  |  |  |  |  |  |
| CN(CCC#N)c1ccc(/C=C2\SC(=S)NC2=O)cc1 | > 100 µM | > 100 µM | > 100 µM | > 100 µM |  |  | > 100 µM | > 100 |  | 79.2 µM | > 100 µM |  |  |  |  |  |  |  |  |
| COc1cc(/C=C2/C(=O)N(C(=O)c3ccccc3O)N=C2C)cc(OC)c1OC | > 21.8 µM | > 100 µM | 0.7 µM | > 25.8 µM |  | > 100 | > 100 µM | > 60.3 |  | > 100 µM | > 100 µM |  |  |  |  |  |  |  |  |
| Cc1nc(-c2ccc([N+](=O)[O-])cc2)cn2c1nc1ccccc12 | > 100 µM | > 100 µM | > 100 µM | > 100 µM |  |  | > 100 µM | > 100 |  | > 100 µM | > 100 µM |  |  |  |  |  |  |  |  |
| COCOC1/C=C/CCCC#C[C@H](C)C(=O)CC1 (stereo partly drawn) | 19.4 µM | 32.6 µM | 25.4 µM | 24.7 µM |  |  | 20.1 µM | 5.12 |  | 27.1 µM | 19.5 µM |  |  |  |  |  |  |  |  |
| CN1C(=O)C2C(=O)N(Cc3ccccc3)CC(=O)N2c2cccnc21 (stereo not drawn) | > 100 µM | > 100 µM | > 100 µM | > 100 µM |  |  | > 100 µM | > 100 |  | > 100 µM | > 100 µM |  |  |  |  |  |  |  |  |
| CC(C)=CCOC(=O)C(C)=[N+]=[N-] | > 100 µM | > 100 µM | > 100 µM | > 100 µM |  |  | > 100 µM | > 100 |  | > 100 µM | > 100 µM |  |  |  |  |  |  |  |  |
| CCOc1cc(NC(C)=O)ccc1C(=O)NNC(=O)c1ccccc1OC(C)=O | > 100 µM | > 100 µM | 73.8 µM | > 50 µM |  |  | > 89.4 µM | > 42.2 |  | > 100 µM | > 100 µM |  |  |  |  |  |  |  |  |
| c1ccc2c(c1)OC(N1CCCC1)c1cnc(N3CCCC3)nc1-2 (stereo not drawn) | > 100 µM | > 100 µM | 76 µM | 78 µM |  |  | > 100 µM | 66.5 |  | 60.9 µM | > 100 µM |  |  |  |  |  |  |  |  |
| NC(N)=NS(=O)(=O)c1ccc(NCc2c3ccccc3[n+]([O-])c3ccccc23)cc1 | > 100 µM | > 100 µM | > 100 µM | > 100 µM | > 100 | > 100 | > 100 µM | 44.4 |  |  |  |  |  |  |  |  |  |  |  |
| Cc1nc2c(sc(=S)n2-c2ccccc2)c2nc3ncccc3n12 | > 100 µM | > 100 µM | > 100 µM | > 100 µM |  |  | > 100 µM | > 100 |  | > 100 µM | > 100 µM |  |  |  |  |  |  |  |  |
| COCOC1/C=C/CCCCC2=C(C)C=C(C1)O2 (stereo not drawn) | > 100 µM | > 100 µM | > 100 µM | > 100 µM |  |  | > 100 µM | > 100 |  | > 100 µM | > 100 µM |  |  |  |  |  |  |  |  |
| CC(=O)OCC1OC(OC(C)(C)CC/C=C(\C)[C@@H]2C/C=C(\C)CC/C=C(\C)CC2)C(O)C(O)C1OC(C)=O (stereo partly drawn) | > 100 µM and 25.3 µM | > 100 µM and 25 µM | > 100 µM and 44.8 µM | > 100 µM and 35.3 µM |  |  | > 100 µM and 34.1 µM | 67.3 |  | 88.6 µM and 34.8 µM | > 82.5 µM and 38.8 µM | 46.2 µM and 12.7 µM | 61.5 µM and 12.5 µM | > 100 µM and 24.4 µM | 58.6 µM and 18.7 µM | > 100 µM and 16.6 µM |  |  |  |
| CCOC(=O)C1Cc2[nH]c3ccccc3c2C(C)C1C (stereo not drawn) | 27.3 µM | 34.5 µM | 34.4 µM | 33.9 µM | 30.4 |  | 32.2 µM |  |  |  |  |  |  |  |  |  |  |  |  |
| CCCCN1C(=O)CC2[C@@H]3CCc4cc(OC(C)=O)ccc4C3CC[C@]2(C)C1=O (stereo partly drawn) | > 10 µM | > 10 µM | > 10 µM | > 10 µM |  |  | > 10 µM | > 10 |  | > 10 µM | > 10 µM |  |  |  |  |  |  |  |  |
| C=C1CC(COc2cc(=O)oc3ccccc23)(c2ccccc2)OC1=O (stereo not drawn) | 4.92 µM | 37.3 µM | 7.47 µM | 2.67 µM |  |  | 21.4 µM | 6.34 |  | 2.97 µM | 11 µM |  |  |  |  |  |  |  |  |
| CC(C)(N=NC(C)(C)C(=O)NCCO)C(=O)NCCO | > 100 µM | > 100 µM | > 100 µM | > 100 µM |  |  | > 100 µM | > 100 |  | > 100 µM | > 100 µM |  |  |  |  |  |  |  |  |
| COc1ccc2[nH]c(O)c(/C=c3/cc4c(c(-c5cc(OC)c(OC)c(OC)c5)n3)=Nc3ccccc3-4)c2c1 | > 100 µM | > 100 µM | 8.72 µM | > 100 µM |  |  | > 100 µM | 34 |  | 83.5 µM | > 100 µM | 5.28 µM | 26 µM | 1.7 µM | > 100 µM | > 100 µM | 5.13 | 3.48 | 7.46 |
| CCN1CC2=C(NC(=S)NC2c2ccc(Cl)cc2)/C(=C/c2ccc(Cl)cc2)C1 (stereo not drawn) | > 100 µM | > 100 µM | 62.1 µM | > 100 µM |  |  | > 100 µM | > 100 |  | > 100 µM | > 100 µM |  |  |  |  |  |  |  |  |
| O=C(O)c1cc2c(cc1CC(Cc1ccc3c(c1)CCC3)C(=O)O)CCC2 (stereo not drawn) | > 100 µM | > 100 µM | > 100 µM | > 100 µM |  |  | > 100 µM | > 100 |  | > 100 µM | > 100 µM |  |  |  |  |  |  |  |  |
| COc1ccc(C(C#N)NNC(=O)c2ccccc2O)cc1OC (stereo not drawn) | 28.4 µM |  |  | 61.4 µM | 47.2 | > 100 | > 100 µM | 30.2 |  |  |  |  |  |  |  |  |  |  |  |
| OCCCCCNc1c2ccccc2nc2ccccc12 | 5.47 µM | 10.8 µM | 12.7 µM | 8.31 µM |  |  | 10.2 µM | > 39 |  | 25.3 µM | 8.5 µM |  |  |  |  |  |  |  |  |
| C[N+]1=C2[B-](C(C)(C)C)=[N+](C(C)(C)C)[B-]2(C(C)(C)C)[N+](C)=C2[B-](C(C)(C)C)=[N+](C(C)(C)C)[B-]21C(C)(C)C (stereo not drawn) | > 100 µM | > 100 µM | > 100 µM | > 100 µM |  |  | > 100 µM | > 100 |  | > 100 µM | > 100 µM |  |  |  |  |  |  |  |  |
